Reference: ChEMBL document CHEMBL5131574, “Discovery of Inhibitors of DNA Methyltransferase 2, an Epitranscriptomic Modulator and Potential Target for Cancer Treatment” (J Med Chem, 2022)

Assays:
[1] = Permeability of the compound in human Caco-2 cells assessed as compound remaining by measuring acid form of the donor compartment incubated for 24 hrs by LC/MS analysis; assay type: ADME, cell-based; conditions: caco-2, 24 h
[2] = Permeability of the compound in human Caco-2 cells assessed as compound remaining by measuring ester form of the acceptor compartment incubated for 24 hrs by LC/MS analysis; assay type: ADME, cell-based; conditions: caco-2, 24 h
[3] = Stability of the compound in TRIS buffer at 7.4 pH assessed as hydrolysis of ethyl ester at 100 uM incubated for 24 hrs by LC-MS analysis; assay type: physicochemical; conditions: pH 7.4, read-out: Drug degradation
[4] = Cytotoxicity against human HEK293 cells assessed as cell viability at 100 uM measured after 24 hrs by MTT assay; assay type: toxicity, cell-based
[5] = Permeability of the compound in human Caco-2 cells assessed as compound remaining by measuring ester form of the donor compartment incubated for 24 hrs by LC/MS analysis; assay type: ADME, cell-based; conditions: read-out: Activity
[6] = target: T1, tRNA (cytosine(38)-C(5))-methyltransferase (Homo sapiens, UniProt O14717); experiment: Inhibition of full length human N-terminal his6-tagged DNMT2 expressed in Escherichia coli Rosetta2(DE3)pLysS by […] assay
T1 sequence (O14717 whole entry): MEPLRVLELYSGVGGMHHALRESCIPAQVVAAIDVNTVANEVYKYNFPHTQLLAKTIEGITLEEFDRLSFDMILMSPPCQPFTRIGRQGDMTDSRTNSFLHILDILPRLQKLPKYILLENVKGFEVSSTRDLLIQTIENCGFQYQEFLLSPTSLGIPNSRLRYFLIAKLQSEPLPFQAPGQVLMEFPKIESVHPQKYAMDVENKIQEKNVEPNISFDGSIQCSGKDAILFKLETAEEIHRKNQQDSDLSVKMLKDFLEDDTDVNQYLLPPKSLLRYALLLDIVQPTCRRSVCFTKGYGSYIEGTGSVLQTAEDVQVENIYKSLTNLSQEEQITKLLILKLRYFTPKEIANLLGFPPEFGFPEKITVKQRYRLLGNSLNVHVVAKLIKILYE

[7] = target: DNA (cytosine-5)-methyltransferase 3A (Homo sapiens) (UniProt Q9Y6K1); experiment: Inhibition of recombinant human DNMT3A-3L expressed in Escherichia coli Rosetta2(DE3)pLysS at 100 uM using Poly(dI-dC)-Poly(dI-dC) as substrate measured at 150 mins by liquid scintillation counting analysis
Sequence of DNA (cytosine-5)-methyltransferase 3A (Homo sapiens) (Q9Y6K1 whole entry, looked up): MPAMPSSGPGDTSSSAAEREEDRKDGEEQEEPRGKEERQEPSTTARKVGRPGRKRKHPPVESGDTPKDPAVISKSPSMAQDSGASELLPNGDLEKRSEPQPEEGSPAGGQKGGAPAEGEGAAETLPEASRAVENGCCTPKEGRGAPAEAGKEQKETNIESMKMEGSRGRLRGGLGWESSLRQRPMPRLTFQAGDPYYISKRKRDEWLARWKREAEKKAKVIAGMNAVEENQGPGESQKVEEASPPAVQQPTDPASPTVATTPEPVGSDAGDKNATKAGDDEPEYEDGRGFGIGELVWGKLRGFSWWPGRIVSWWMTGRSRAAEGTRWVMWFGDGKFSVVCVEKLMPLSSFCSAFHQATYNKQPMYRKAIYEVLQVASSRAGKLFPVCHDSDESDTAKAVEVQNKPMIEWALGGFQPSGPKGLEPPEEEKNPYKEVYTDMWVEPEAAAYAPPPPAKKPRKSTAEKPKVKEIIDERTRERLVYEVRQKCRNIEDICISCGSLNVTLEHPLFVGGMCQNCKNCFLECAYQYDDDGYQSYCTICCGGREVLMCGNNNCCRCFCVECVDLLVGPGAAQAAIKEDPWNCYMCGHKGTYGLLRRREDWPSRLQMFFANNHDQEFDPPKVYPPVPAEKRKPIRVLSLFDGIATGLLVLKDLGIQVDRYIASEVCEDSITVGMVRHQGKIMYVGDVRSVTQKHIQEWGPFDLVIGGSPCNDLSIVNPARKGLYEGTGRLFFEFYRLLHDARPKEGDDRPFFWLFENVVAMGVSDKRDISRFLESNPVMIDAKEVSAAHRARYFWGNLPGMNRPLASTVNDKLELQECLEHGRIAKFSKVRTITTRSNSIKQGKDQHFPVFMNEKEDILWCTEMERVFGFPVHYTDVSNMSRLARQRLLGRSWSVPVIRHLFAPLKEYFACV

[8] = target: T2, tRNA (cytosine(38)-C(5))-methyltransferase (Homo sapiens) (UniProt O14717); experiment: Inhibition of DNMT2-mediated tRNA methylation in human HEK293 cells assessed as reduction in m5C at C38 of tRNA by measuring m5C level at 100 uM incubated for 24 hrs by bisulfite sequencing analysis; assay type: cell-based
T2 sequence (whole entry): T1 sequence (O14717 whole entry)

[9] = target: RNA cytosine C(5)-methyltransferase NSUN2 (Homo sapiens) (UniProt Q08J23); experiment: Inhibition of full length recombinant human NSUN2 expressed in Escherichia coli Rosetta2(DE3)pLysS at 100 uM measured at 20 mins by liquid scintillation counting analysis
Sequence of RNA cytosine C(5)-methyltransferase NSUN2 (Homo sapiens) (Q08J23 whole entry): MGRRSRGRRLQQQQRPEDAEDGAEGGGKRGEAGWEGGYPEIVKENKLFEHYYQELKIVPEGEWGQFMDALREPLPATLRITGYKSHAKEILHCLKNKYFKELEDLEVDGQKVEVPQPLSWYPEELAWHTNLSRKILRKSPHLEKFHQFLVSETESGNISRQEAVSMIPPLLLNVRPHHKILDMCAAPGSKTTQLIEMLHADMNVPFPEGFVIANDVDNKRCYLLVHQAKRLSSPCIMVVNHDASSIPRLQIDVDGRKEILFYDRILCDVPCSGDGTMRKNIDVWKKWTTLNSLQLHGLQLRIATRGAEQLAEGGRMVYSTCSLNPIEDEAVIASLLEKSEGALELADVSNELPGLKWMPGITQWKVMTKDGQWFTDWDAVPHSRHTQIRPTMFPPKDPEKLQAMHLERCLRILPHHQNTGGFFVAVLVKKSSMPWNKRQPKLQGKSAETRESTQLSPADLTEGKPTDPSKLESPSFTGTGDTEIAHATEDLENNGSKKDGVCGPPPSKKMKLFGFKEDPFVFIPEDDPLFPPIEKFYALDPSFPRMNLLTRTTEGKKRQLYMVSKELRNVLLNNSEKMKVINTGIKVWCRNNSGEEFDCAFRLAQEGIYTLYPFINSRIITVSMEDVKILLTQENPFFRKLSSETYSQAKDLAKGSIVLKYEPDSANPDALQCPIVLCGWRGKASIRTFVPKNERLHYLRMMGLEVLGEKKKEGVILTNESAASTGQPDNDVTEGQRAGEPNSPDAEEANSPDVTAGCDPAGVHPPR

[10] = target: T3, tRNA (cytosine(72)-C(5))-methyltransferase NSUN6 (Homo sapiens) (UniProt Q8TEA1); experiment: Inhibition of full length human NSUN6 expressed in Escherichia coli Rosetta2(DE3)pLysS at 100 uM measured at 20 mins by liquid scintillation counting analysis
T3 sequence (whole entry): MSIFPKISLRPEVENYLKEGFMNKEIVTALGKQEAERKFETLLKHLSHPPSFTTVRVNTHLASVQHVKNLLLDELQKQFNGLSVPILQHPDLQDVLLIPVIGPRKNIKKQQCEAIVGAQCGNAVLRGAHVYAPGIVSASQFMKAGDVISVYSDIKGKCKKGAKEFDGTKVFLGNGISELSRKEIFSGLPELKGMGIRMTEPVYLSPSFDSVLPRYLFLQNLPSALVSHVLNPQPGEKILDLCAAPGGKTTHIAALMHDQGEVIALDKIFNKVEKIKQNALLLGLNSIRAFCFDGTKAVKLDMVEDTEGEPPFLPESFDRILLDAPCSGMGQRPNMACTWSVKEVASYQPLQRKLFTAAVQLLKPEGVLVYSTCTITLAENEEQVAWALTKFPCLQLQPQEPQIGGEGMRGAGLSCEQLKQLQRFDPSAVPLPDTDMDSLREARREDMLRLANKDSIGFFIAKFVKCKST

[11] = target: T2, tRNA (cytosine(38)-C(5))-methyltransferase (Homo sapiens); experiment: Binding affinity to full length human N-terminal his6-tagged DNMT2 expressed in Escherichia coli Rosetta2(DE3)pLysS assessed as gibbs free energy change at 100 uM by isothermal titration calorimetry assay
[12] = target: T2, tRNA (cytosine(38)-C(5))-methyltransferase (Homo sapiens); experiment: Binding affinity to full length human N-terminal his6-tagged DNMT2 expressed in Escherichia coli Rosetta2(DE3)pLysS assessed as change in entropy at 100 uM by isothermal titration calorimetry assay
[13] = Selectivity ratio of Kd for binding affinity to full length human N-terminal his6-tagged DNMT2 expressed in Escherichia coli Rosetta2(DE3)pLysS assessed as dissociation constant to IC50 for inhibition of full length human N-terminal his6-tagged DNMT2 expressed in Escherichia coli Rosetta2(DE3)pLysS
[14] = target: T2, tRNA (cytosine(38)-C(5))-methyltransferase (Homo sapiens); experiment: Binding affinity to full length human N-terminal his6-tagged DNMT2 expressed in Escherichia coli Rosetta2(DE3)pLysS assessed as change in enthalpy change at 100 uM by isothermal titration calorimetry assay
[15] = target: T4, Histone-lysine N-methyltransferase EHMT2 (Homo sapiens) (UniProt Q96KQ7); experiment: Inhibition of recombinant human EHMT2 G9a expressed in Escherichia coli Rosetta2(DE3)pLysS at 100 uM using histone H3 as substrate measured at 120 mins by liquid scintillation counting analysis
T4 sequence (whole entry): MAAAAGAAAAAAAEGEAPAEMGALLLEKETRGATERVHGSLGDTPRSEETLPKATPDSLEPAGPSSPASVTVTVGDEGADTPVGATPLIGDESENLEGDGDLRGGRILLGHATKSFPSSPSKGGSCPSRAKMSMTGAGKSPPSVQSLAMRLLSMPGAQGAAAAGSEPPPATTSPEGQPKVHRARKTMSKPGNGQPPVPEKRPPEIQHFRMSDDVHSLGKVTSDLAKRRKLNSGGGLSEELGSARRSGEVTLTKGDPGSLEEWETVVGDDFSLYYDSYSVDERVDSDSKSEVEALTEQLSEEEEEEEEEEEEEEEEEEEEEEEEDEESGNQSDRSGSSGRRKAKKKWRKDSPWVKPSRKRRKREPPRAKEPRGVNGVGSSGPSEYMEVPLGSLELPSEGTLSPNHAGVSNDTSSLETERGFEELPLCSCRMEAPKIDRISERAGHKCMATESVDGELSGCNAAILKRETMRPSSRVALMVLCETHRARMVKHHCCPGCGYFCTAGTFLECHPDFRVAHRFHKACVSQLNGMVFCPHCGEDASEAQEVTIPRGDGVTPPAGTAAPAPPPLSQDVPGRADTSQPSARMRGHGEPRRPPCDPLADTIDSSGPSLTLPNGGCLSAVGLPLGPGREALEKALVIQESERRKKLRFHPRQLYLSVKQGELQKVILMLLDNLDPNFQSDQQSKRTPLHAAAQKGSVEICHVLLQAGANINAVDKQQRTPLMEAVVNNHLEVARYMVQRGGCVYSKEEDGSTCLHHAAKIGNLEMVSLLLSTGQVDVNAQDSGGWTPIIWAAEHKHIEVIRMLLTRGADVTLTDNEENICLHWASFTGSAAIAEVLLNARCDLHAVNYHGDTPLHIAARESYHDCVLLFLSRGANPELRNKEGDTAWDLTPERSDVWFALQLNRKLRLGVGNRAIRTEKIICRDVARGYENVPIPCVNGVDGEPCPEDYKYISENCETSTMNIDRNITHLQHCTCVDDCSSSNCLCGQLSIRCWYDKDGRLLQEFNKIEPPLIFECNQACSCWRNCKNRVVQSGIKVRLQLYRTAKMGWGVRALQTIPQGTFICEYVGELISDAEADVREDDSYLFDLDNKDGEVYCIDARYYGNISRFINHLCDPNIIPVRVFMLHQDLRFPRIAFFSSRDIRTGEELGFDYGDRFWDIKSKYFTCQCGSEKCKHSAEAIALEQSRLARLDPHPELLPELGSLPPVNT

[16] = target: T2, tRNA (cytosine(38)-C(5))-methyltransferase (Homo sapiens); experiment: Inhibition of full length human N-terminal his6-tagged DNMT2 expressed in Escherichia coli Rosetta2(DE3)pLysS at 100 uM by liquid scintillation counting analysis
[17] = target: T1, tRNA (cytosine(38)-C(5))-methyltransferase; experiment: Binding affinity to full length human N-terminal his6-tagged DNMT2 expressed in Escherichia coli Rosetta2(DE3)pLysS assessed as dissociation constant at 100 uM by isothermal titration calorimetry assay

Compound | Activity [1] | Activity [2] [%] | degraded at 24 h, 100 µM [3] [%] | remaining at 24 h [5] [%] | IC50 [6] [µM] | inhibition [7] [%] | inhibition [8] [%] | inhibition [9] [%] | inhibition [10] [%] | deltaG [11] [kcal/mol] | -TdeltaS [12] [kcal/mol] | Selectivity ratio [13] | deltaH [14] [kcal/mol] | inhibition [15] [%] | inhibition [16] [%] | Kd [17] [µM] | CC50 at 24 h [4] [µM]
C#CC(C)N(CC[C@H](N)C(=O)OCC)C[C@H]1O[C@@H](n2cnc3c(N)ncnc32)[C@H](O)[C@@H]1O (some centres undefined) | <= 78% | 2 | 60 | 20 | – | – | – | – | – | – | – | – | – | – | – | – | > 500
CCC#CCN(CC[C@H](N)C(=O)O)C[C@H]1O[C@@H](n2cnc3c(N)ncnc32)[C@H](O)[C@@H]1O | – | – | – | – | – | 95.3 | – | – | 22.7 | – | – | – | – | 32 | – | – | –
CC#CCN(CC[C@H](N)C(=O)O)C[C@H]1O[C@@H](n2cnc3c(N)ncnc32)[C@H](O)[C@@H]1O | – | – | – | – | – | 93.9 | – | – | 12.9 | – | – | – | – | 37.6 | – | – | –
Nc1ncnc2c1ncn2[C@@H]1O[C@H](CSCC[C@H](N)C(=O)O)[C@@H](O)[C@H]1O [S-ADENOSYLHOMOCYSTEINE] | – | – | – | – | 15.8 | 96.7 | – | 97.3 | 99.6 | -6.64 | 6.57 | – | -13.2 | 94.3 | 85.7 | 13.6 | –
CCCN(CC[C@H](N)C(=O)O)C[C@H]1O[C@@H](n2cnc3c(N)ncnc32)[C@H](O)[C@@H]1O | – | – | – | – | – | – | – | – | – | – | – | – | – | – | – | – | > 500

Further lines, with some results ahead:

Activity [1] | Activity [2] [%] | degraded at 24 h, 100 µM [3] [%] | remaining at 24 h [5] [%] | IC50 [6] [µM] | inhibition [7] [%] | inhibition [8] [%] | inhibition [9] [%] | inhibition [10] [%] | deltaG [11] [kcal/mol] | -TdeltaS [12] [kcal/mol] | Selectivity ratio [13] | deltaH [14] [kcal/mol] | inhibition [15] [%] | inhibition [16] [%] | Kd [17] [µM] | Compound | CC50 at 24 h [4] [µM]
– | – | – | – | 13.2 | 98 | 94 | 77.1 | 70.2 | -7 | -1.15 | 2 | -5.86 | 43 | 83.5 | 7.5 | Nc1ncnc2c1ncn2[C@@H]1O[C@H](C[C@@H](N)CC[C@H](N)C(=O)O)[C@@H](O)[C@H]1O [SINEFUNGIN] | > 500
– | 0.6 | – | – | – | 84.2 | – | – | – | – | – | – | – | 71 | – | – | C#CC(C)N(CC[C@H](N)C(=O)O)C[C@H]1O[C@@H](n2cnc3c(N)ncnc32)[C@H](O)[C@@H]1O (some centres undefined) | > 500
– | – | – | – | 77.1 | 97.6 | – | – | 25.9 | -6.74 | 2.29 | 7 | -9.03 | 22.8 | 72.2 | 11.4 | C#CCN(CC[C@H](N)C(=O)O)C[C@H]1O[C@@H](n2cnc3c(N)ncnc32)[C@H](O)[C@@H]1O | –
